According to US10898540B2, “Peptide having effects of increasing telomerase activity and extending telomere, and composition containing same” (GEMVAX & KAEL CO., LTD., priority 2016, dated 2021):

How the values were obtained:
[1] = system: telomere; assay: Telomere length (TeloTAGGG telomere length assay, Southern blot) in brain tissue of 3xTg-AD mice after subcutaneous administration; assay type: in vivo, mouse; conditions: 3xTg-AD mice, 0.01, 0.1 and 1 mg/kg s.c. three times a week for 2 months, whole brain tissue, FIG. 2
From the text: (§1) To test the PEP1 therapeutic effect on Alzheimer's disease, Alzheimer transgenic mice (3×Tg-AD) were purchased from Jackson Laboratory.
(§2) To investigate the effect of PEP1 according to concentration after breeding, experimental animals were divided and then administered experimental materials as follows. As a positive control material, donepezil was used, the experimental animals were divided into five groups, and each group included 10 mice. Administered materials and doses per group are as follows. • Group 1: Saline • Group 2: 0.01 mg/kg ofPEP1 • Group 3: 0.1 mg/kg of PEP1 • Group 4: 1 mg/kg of PEP1 • Group 5: 1 mg/kg of donepezil
PEP1, saline and donepezil were subcutaneously injected at each concentration three times a week for 2 months from the 12th month, one month later (at the age of 15 months), the mice (10 mice per group) were anesthetized, and reperfusion was carried out through the heart of each mouse using 0.9% saline to remove blood. Afterward, the brain was extracted, and separated into the hippocampus and the whole brain area, thereby obtaining brain tissue, and the tissue was rapidly frozen using liquid nitrogen. […]

[2] = system: telomerase; assay: Telomerase activity (TeloTAGGG telomerase PCR ELISA, RTA) in brain tissue of 3xTg-AD mice after subcutaneous administration; assay type: in vivo, mouse; conditions: for increase of telomerase activity compared with saline-administered group (Group 1): s.c. three times a week for 2 months, whole brain tissue at age 15 months
From the text: as §1, §2
PEP1, saline and donepezil were subcutaneously injected at each concentration three times a week for 2 months from the 12th month, one month later (at the age of 15 months), the mice (10 mice per group) were anesthetized, and reperfusion was carried out through the heart of each mouse using 0.9% saline to remove blood. Afterward, the brain was extracted, and separated into the hippocampus and the whole brain area, thereby obtaining brain tissue, and the tissue was rapidly frozen using liquid nitrogen.
To investigate PEP1-induced telomerase activity, TeloTAGGG telomerase PCR ELISAPLUS (Cat #12 013 789 001, Roche Boehringer-Mannheim, IN, USA) was used, the entire brain tissues prepared according to the method of Example 2-1 were pulverized, 200 μl of an ice-cold lysis buffer was added to […] of the tissue, incubated on ice for 30 minutes, and centrifuged at 16,000×g for 20 minutes to isolate 175 μl of a protein. 10 μg of the protein was quantified and mixed with a reaction mixture and an internal standard, followed by PCR (see FIG. 4). Hybridization was carried out, a sample was added to a specially-coated MP module to perform a reaction, and then absorbance was measured at 450 or 690 nm using an ELISA reader. Relative telomerase activities (RTAs) were calculated using a calculation formula (see FIG. 3).

EARPALLTSRLRFIPK (hTERT derived peptide fragment) [PEP1, hTERT-derived peptide consisting of 16 amino acids, telomerase location [611-626], made by Fmoc solid phase synthesis]
telomere length [1]: increased according to PEP1 administration concentration
increase of telomerase activity compared with saline-administered group (Group 1) ([2]; 0.1 mg/kg (Group 3)): 266%
increase of telomerase activity compared with saline-administered group (Group 1) ([2]; Group 4 (dose printed as 'mg/kg'; Group 4 = 1 mg/kg)): 370%
telomerase activity compared with donepezil-administered group (Group 5) ([2]; Group 4 vs donepezil Group 5, s.c. three times a week for 2 months, FIG. 1): statistically significant increase
